Laboratory results published in US11166460B2, “α-amino acrylate microbicide, and preparation method therefor and uses thereof” (priority 2017, dated 2021).
Read-outs that look alike come from different tables or passages of the source.

Tests used:
[1] = system: tobacco mosaic virus (TMV); experiment: Anti-TMV protective activity (protection mode), live friction inoculation on tobacco seedlings; type: in vivo; details: Tobacco mosaic virus, read-out: Anti-TMV activity, Protection effect (inhibition)
Botrytis cinerea = experiment: Fungicidal activity, fungi growth rate method, BC; type: cell-based; details: Botrytis cinerea, 50 μg/mL
Rhizoctonia cerealis = experiment: Fungicidal activity, fungi growth rate method, RC; type: cell-based; details: Ceratobasidium cereale, 50 μg/mL
[2] = system: Phytophthora infestans (Mont) de Bary; experiment: microbe, parasite or virus in culture; type: cell-based; details: Phytophthora infestans
Cercospora arachidicola = experiment: Fungicidal activity, fungi growth rate method, CA; type: cell-based; details: Mycosphaerella arachidis, 50 μg/mL
[3] = system: tobacco mosaic virus (TMV); experiment: Anti-TMV curative activity (treatment mode), live friction inoculation on tobacco seedlings; type: in vivo; details: Tobacco mosaic virus, read-out: Anti-TMV activity, Curative effect (inhibition), 100 μg/mL, tobacco seedlings, checked on seventh day
Alternaria solani = experiment: Fungicidal activity, fungi growth rate method, AS; type: cell-based; details: Alternaria solani, 50 μg/mL
Physalospora piricola = experiment: Fungicidal activity, fungi growth rate method, PP; type: cell-based; details: 50 μg/mL
Sclerotinia sclerotiorum = experiment: microbe, parasite or virus in culture; type: cell-based; details: Sclerotinia sclerotiorum, 50 μg/mL
[4] = system: tobacco mosaic virus (TMV); experiment: Anti-TMV inactivation activity (inactivation mode), compound mixed with TMV before inoculation of tobacco leaves; type: in vivo; details: Tobacco mosaic virus, read-out: Anti-TMV activity, Inactivation effect (inhibition)
wheat Gibberella zeae = experiment: microbe, parasite or virus in culture; type: cell-based; details: Fusarium graminearum
Pellicularia sasakii = experiment: Fungicidal activity, fungi growth rate method, PS; type: cell-based; details: 50 μg/mL
[5] = system: tobacco mosaic virus (TMV); experiment: Anti-TMV inducing activity (induction mode), tobacco seedlings; type: in vivo; details: Tobacco mosaic virus, read-out: Anti-TMV activity, Induction effect (inhibition), 100 μg/mL, tobacco seedlings
[6] = read-out: Fungicidal activity, inhibition, BC
[7] = read-out: Fungicidal activity, inhibition, RC
[8] = read-out: Fungicidal activity, inhibition, PI
[9] = read-out: Fungicidal activity, inhibition, CA
[10] = read-out: Fungicidal activity, inhibition, AS
[11] = read-out: Fungicidal activity, inhibition, PP
[12] = read-out: Fungicidal activity, inhibition, SS
[13] = read-out: Fungicidal activity, inhibition, GZ
[14] = read-out: Fungicidal activity, inhibition, PS
[15] = read-out: Fungicidal activity (inhibition) against SS: Sclerotinia sclerotiorum
[16] = read-out: Fungicidal activity (inhibition) against BC: Botrytis cinerea
[17] = read-out: Fungicidal activity (inhibition) against RC: Rhizoctonia cerealis
[18] = read-out: Fungicidal activity (inhibition) against PI: Phytophthora infestans (Mont) de Bary
[19] = read-out: Fungicidal activity (inhibition) against CA: Cercospora arachidicola
[20] = read-out: Fungicidal activity (inhibition) against AS: Alternaria solani
[21] = read-out: Fungicidal activity (inhibition) against PP: Physalospora piricola
[22] = read-out: Fungicidal activity (inhibition) against GZ: wheat Gibberella zeae
[23] = read-out: Fungicidal activity (inhibition) against PS: Pellicularia sasakii

| Compound | inhibition at 100 µg/mL [1] | inhibition at 50 µg/mL (Botrytis cinerea; [6]) | inhibition at 50 µg/mL (Rhizoctonia cerealis; [7]) | inhibition at 50 µg/mL [2, 8] | inhibition at 50 µg/mL (Cercospora arachidicola; [9]) | inhibition at 100 µg/mL [3] | melting point | inhibition at 50 µg/mL (Alternaria solani; [10]) | inhibition at 50 µg/mL (Physalospora piricola; [11]) | inhibition at 50 µg/mL (Sclerotinia sclerotiorum; [12]) | inhibition at 100 µg/mL [4] | inhibition at 50 µg/mL (wheat Gibberella zeae; [13]) | inhibition at 50 µg/mL (Pellicularia sasakii; [14]) | inhibition at 100 µg/mL [5] | inhibition at 50 µg/mL (Sclerotinia sclerotiorum; [15]) | further results |
| --- | --- | --- | --- | --- | --- | --- | --- | --- | --- | --- | --- | --- | --- | --- | --- | --- |
| CC(C)(C)OC(=O)N1CCC(c2nc(/C=C(\NC(=O)c3ccccc3)C(=O)N3CCC(O)(c4ccc(Br)cc4)CC3)cs2)CC1 [Compound 29, (Z)-N-[1-[[4-(4-bromophenyl)-4-hydroxy-1-piperidinyl]carbonyl]-2-[4-[2-[4-(1-Boc-piperidine)]thiazol]]ethenyl]benzamide] | 0% | 7% | 10% | 14% | 13% | 36% | 166 to 168 °C | 6% | 0% | 67% | 0% | 3% | 11% | 2% | – | – |
| CCOC(=O)c1csc(C2CCN(C(=O)/C(=C/c3ccccc3)NC(=O)c3ccccc3)CC2)n1 [Compound 30, (Z)-N-[1-[[[4-[2-(ethylthiazole-4-carboxylate)]]-1-piperidinyl]carbonyl]-2-phenylethenyl]benzamide] | 0% | 17% | 4% | 9% | 7% | 3% | 114 to 115 °C | 13% | 2% | 82% | 0% | 11% | 13% | 2% | 80 to 95% | – |
| O=C(N/C(=C\c1ccccc1)C(=O)N1CCC(c2nc(CO)cs2)CC1)c1ccccc1 [Compound 31, (Z)-N-[1-[[[4-[2-(4-hydroxymethylthiazol)]]-1-piperidinyl]carbonyl]-2-phenylethenyl]benzamide] | 0% | 7% | 16% | 24% | 23% | 0% | 118 to 120 °C | 21% | 0% | 56% | 0% | 7% | 5% | 33% | – | – |
| CNC(=O)/C(=C/c1ccccc1)NC(=O)c1ccccc1 [Compound 32, (Z)-N-[1-[(methylamino)carbonyl]-2-phenylethenyl]benzamide] | 58% | 11% | 4% | 16% | 16% | 0% | 185 to 187 °C | 5% | 12% | 80% | 25% | 6% | 13% | 10% | 80% | inhibition at 50 µg/mL (Botrytis cinerea; [16]): ≤ 20%; inhibition at 50 µg/mL (Rhizoctonia cerealis; [17]): < 20%; inhibition at 50 µg/mL [2, 18]: < 25%; inhibition at 50 µg/mL (Cercospora arachidicola; [19]): < 25%; inhibition at 50 µg/mL (Alternaria solani; [20]): < 30%; inhibition at 50 µg/mL (Physalospora piricola; [21]): < 20%; inhibition at 50 µg/mL (wheat Gibberella zeae; [22]): < 45%; inhibition at 50 µg/mL (Pellicularia sasakii; [23]): < 30% |
| CONC(=O)/C(=C/c1ccccc1)NC(=O)c1ccccc1 [Compound 33, (Z)-N-[1-[(methoxylamino)carbonyl]-2-phenylethenyl]benzamide] | 1% | 22% | 10% | 8% | 13% | 3% | 166 to 168 °C | 21% | 3% | 17% | 0% | 0% | 5% | 45% | – | – |
| COC(=O)[C@H](C)NC(=O)/C(=C/c1ccccc1)NC(=O)c1ccccc1 [Compound 34, (S,Z)-N-[1-[[1-(2-methyl propanoate)amino]carbonyl]-2-phenylethenyl]benzamide] | 0% | 24% | 3% | 5% | 16% | 0% | 147 to 148 °C | 21% | 0% | 56% | 0% | 16% | 0% | 50% | – | – |
| COC(=O)CCNC(=O)/C(=C/c1ccccc1)NC(=O)c1ccccc1 [Compound 35, (Z)-N-[1-[[1-(3-methyl propionate)amino]carbonyl]-2-phenylethenyl]benzamide] | 3% | 21% | 7% | 13% | 3% | 0% | 139 to 141 °C | 25% | 3% | 67% | 16% | 7% | 0% | 23% | – | – |
| COC(=O)CCCNC(=O)/C(=C/c1ccccc1)NC(=O)c1ccccc1 [Compound 36, (Z)-N-[1-[[1-(4-methylbutanoate)amino]carbonyl]-2-phenylethenyl]benzamide] | 13% | 10% | 16% | 2% | 10% | 36% | 110 to 111 °C | 21% | 0% | 50% | 0% | 0% | 0% | 41% | – | – |
| COC(=O)[C@H]1CCCN1C(=O)/C(=C/c1ccccc1)NC(=O)c1ccccc1 [Compound 37, (R,Z)-N-[1-[(2-methylpyrrolidinecarboxylate)]carbonyl-2-phenylethenyl]benzamide] | 2% | 21% | 13% | 5% | 13% | 25% | 155 to 157 °C | 17% | 0% | 56% | 0% | 23% | 6% | 40% | – | – |
| O=C(N/C(=C\c1ccccc1)C(=O)N1CCOCC1)c1ccccc1 [Compound 38, (Z)-N-[1-(4-morpholinylcarbonyl)-2-phenylethenyl]benzamide] | 38% | 4% | 9% | 11% | 7% | 0% | 147 to 149 °C | 8% | 0% | 77% | 0% | 6% | 13% | 46% | 77% | inhibition at 50 µg/mL (Botrytis cinerea; [16]): ≤ 20%; inhibition at 50 µg/mL (Rhizoctonia cerealis; [17]): < 20%; inhibition at 50 µg/mL [2, 18]: < 25%; inhibition at 50 µg/mL (Cercospora arachidicola; [19]): < 25%; inhibition at 50 µg/mL (Alternaria solani; [20]): < 30%; inhibition at 50 µg/mL (Physalospora piricola; [21]): < 20%; inhibition at 50 µg/mL (wheat Gibberella zeae; [22]): < 45%; inhibition at 50 µg/mL (Pellicularia sasakii; [23]): < 30% |
